As a reminder, the IC50 is the concentration needed to halve the response being measured.

Sequence of FGFR1 active kinase (P11362 22-822): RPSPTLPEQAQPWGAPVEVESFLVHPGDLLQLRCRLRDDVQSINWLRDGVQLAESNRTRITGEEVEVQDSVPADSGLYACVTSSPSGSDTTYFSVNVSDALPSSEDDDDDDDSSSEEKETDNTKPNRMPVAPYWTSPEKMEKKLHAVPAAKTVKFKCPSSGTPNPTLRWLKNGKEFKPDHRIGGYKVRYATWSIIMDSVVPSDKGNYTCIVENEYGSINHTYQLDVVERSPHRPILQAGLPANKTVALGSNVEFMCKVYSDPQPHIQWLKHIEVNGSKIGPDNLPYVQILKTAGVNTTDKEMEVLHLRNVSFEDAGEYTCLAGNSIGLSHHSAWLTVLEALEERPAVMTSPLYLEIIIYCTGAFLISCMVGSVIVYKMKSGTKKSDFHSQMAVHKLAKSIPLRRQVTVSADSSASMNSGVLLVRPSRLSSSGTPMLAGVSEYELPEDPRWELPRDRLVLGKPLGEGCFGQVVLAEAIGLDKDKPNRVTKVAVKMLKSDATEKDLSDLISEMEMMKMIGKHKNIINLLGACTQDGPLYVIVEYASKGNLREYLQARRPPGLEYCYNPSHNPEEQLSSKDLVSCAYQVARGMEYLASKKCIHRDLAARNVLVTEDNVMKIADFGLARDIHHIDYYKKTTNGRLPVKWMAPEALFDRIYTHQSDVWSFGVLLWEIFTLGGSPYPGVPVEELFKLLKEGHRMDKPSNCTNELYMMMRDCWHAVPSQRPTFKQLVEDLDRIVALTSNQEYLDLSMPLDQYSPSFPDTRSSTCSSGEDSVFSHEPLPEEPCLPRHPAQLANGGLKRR

In this assay the target is FGFR1 active kinase (Homo sapiens, UniProt P11362). The assay is described as follows: FGFR Kinase assay - Caliper Echo Dosing. Type of assay: biochemical. Conditions: FGFR1 7.2 nM, 408 uM ATP, acoustic dosing; geometric mean of n. The protocol:
FGFR Kinase Assay—Caliper Echo Dosing
To determine inhibition of FGFR activity, kinase assays were conducted using Caliper technology.
Kinase activity assays were performed in Greiner 384-well low volume plates, with a total reaction volume of 12 ul per well. Final concentration of FGFR1 active kinase in each reaction well was 7.2 nM. The substrate for each assay was a custom peptide with fluorescent tag (13 amino acids in length, […] with the fluorescene tag on the first K).
Compounds were dispensed directly in to assay plates using a Labcyte Echo 550 acoustic droplet ejection unit. Each well received 120 nl of DMSO containing compound such that the final concentration of compound in the assay prior to the addition of the stop solution ranged between 30 uM and 30 pM. In addition to compounds each plate carried maximum and minimum control wells, the max wells contained 120 nl of DMSO and the min wells contained 120 nl of 10 mM staurosporine (LC Laboratories, MA 01801, USA Catalogue No. S-9300). The Enzyme (at 7.2 nM [final]) and Substrate (at 3.6 uM [final]) were added separately to the compound plates, in reaction buffer [comprising: 50 mM MOPS (Sigma, Catalogue No. M1254)—pH 6.5, 0.004% Triton (Sigma, Catalogue No. X-100), 2.4 mM DTT, 12 mM MgCl2, 408 uM ATP] resulting in a final DMSO concentration in the reaction mix of 1%.
Assay plates were incubated at room temperature for 1.5 h, before the reaction was stopped with the addition of buffer [comprising: 100 mM HEPES—pH7.5, 0.033% Brij-35 (Sigma Catalogue No. B4184), 0.22% Caliper Coating Reagent #3 (Caliper Life Sciences Catalogue No. 760050), 88 mM EDTA, 5% DMSO]. Stopped assay plates were then read using the Caliper LabChip® LC3000 (which uses microfludics to measure a shift in mobility between fluorescent labelled peptide and the FGFR1 kinase—phosphorylated form of this peptide).
In the assay, compounds were tested at a range of concentrations. […] Percentage inhibition at 1 uM, as expressed herein, is a calculated value based on the curve fit that was generated experimentally. From the fitted curve plot, the effect of compound at a concentration of 1 uM was calculated as a percentage inhibition. The IC50 is the concentration of compound, which inhibits FGFR1 kinase activity by 50% in the context of this assay. This value is calculated using a standard curve fitting software package Origin™.
Turning to `COc1cc(COc2cc(NC(=O)c3ccc(C4CCN(C)CC4)cc3)[nH]n2)cc(OC)c1` [Example 103, N-[5-[(3,5-dimethoxyphenyl)methoxy]-2H-pyrazol-3-yl]-4-(1-methylpiperidin-4-yl)benzamide], half-maximal inhibition (IC50) was put at 0.94 nM.
Take `COc1cc(COc2cc(NC(=O)c3ccc(N4CCN5CCCC5C4)cc3)[nH]n2)cc(OC)c1` (centres unmarked) [Example 104, 4-(3,4,6,7,8,8a-hexahydro-1H-pyrrolo[2,1-c]pyrazin-2-yl)-N-[5-[(3,5-dimethoxyphenyl)methoxy]-2H-pyrazol-3-yl]benzamide]: it took 1.3 nM to reach half-maximal inhibition (IC50).
`COc1cc(CCc2cc(NC(=O)c3cnc(N4CCN5CCCCC5C4)cn3)[nH]n2)cc(OC)c1` (centres unmarked) [Example 105, 5-(1,3,4,6,7,8,9,9a-Octahydropyrido[2,1-c]pyrazin-2-yl)-N-[5-[2-(3,5-dimethoxyphenyl)ethyl]-2H-pyrazol-3-yl]pyrazine-2-carboxamide] yielded an IC50 of 130 nM.
The compound `COc1cc(CCc2cc(NC(=O)c3ccc(N4CCN(C)CC4)s3)[nH]n2)cc(OC)c1` [Example 106, N-[5-[2-(3,5-dimethoxyphenyl)ethyl]-2H-pyrazol-3-yl]-5-(4-methylpiperazin-1-yl)thiophene-2-carboxamide] showed an IC50 of 1 nM.
For `COc1cc(COc2cc(NC(=O)c3ccc(N4CCN(C)CC4)s3)[nH]n2)cc(OC)c1` [Example 107, N-[5-[(3,5-dimethoxyphenyl)methoxy]-2H-pyrazol-3-yl]-5-(4-methylpiperazin-1-yl)thiophene-2-carboxamide], the IC50 worked out at 1.1 nM.
Next, `COc1cc(CCc2cc(NC(=O)c3cnc(N4CCNC(C)(C)C4)cn3)[nH]n2)cc(OC)c1` [Example 108, N-[5-[2-(3,5-dimethoxyphenyl)ethyl]-2H-pyrazol-3-yl]-5-(3,3-dimethylpiperazin-1-yl)pyrazine-2-carboxamide]: 2 nM.
Compound `COc1cc(COc2cc(NC(=O)c3cnc(N4CCN(C5CC5)CC4)cn3)[nH]n2)cc(OC)c1` [Example 109, 5-(4-Cyclopropylpiperazin-1-yl)-N-[5-[(3,5-dimethoxyphenyl)methoxy]-2H-pyrazol-3-yl]pyrazine-2-carboxamide] registered an IC50 of 3 nM.
In the case of `COc1cc(COc2cc(NC(=O)c3ccc(N4C[C@@H](C)N(C)[C@@H](C)C4)cc3)[nH]n2)cc(OC)c1` [Example 110, N-[5-[(3,5-dimethoxyphenyl)methoxy]-2H-pyrazol-3-yl]-4-[(3R,5S)-3,4,5-trimethylpiperazin-1-yl]benzamide], it took 0.68 nM to reach half-maximal inhibition (IC50).
For the compound `COc1cc(COc2cc(NC(=O)c3ccc(N4CCNC(C)(C)C4)cc3)[nH]n2)cc(OC)c1` [Example 111, N-[5-[(3,5-dimethoxyphenyl)methoxy]-2H-pyrazol-3-yl]-4-(3,3-dimethylpiperazin-1-yl)benzamide], the IC50 worked out at 0.76 nM.
`COc1cc(CCc2cc(NC(=O)c3cnc(N4C[C@@H](C)N[C@@H](C)C4)cn3)[nH]n2)cc(OC)c1` [Example 112, N-[5-[2-(3,5-dimethoxyphenyl)ethyl]-2H-pyrazol-3-yl]-5-[(3R,5S)-3,5-dimethylpiperazin-1-yl]pyrazine-2-carboxamide] came in with an IC50 of 1.7 nM.
For the compound `COc1cc(CCc2cc(NC(=O)c3cnc(N4CCN(C5CC5)CC4)cn3)[nH]n2)cc(OC)c1` [Example 113, 5-(4-Cyclopropylpiperazin-1-yl)-N-[5-[2-(3,5-dimethoxyphenyl)ethyl]-2H-pyrazol-3-yl]pyrazine-2-carboxamide], 2.3 nM corresponded to half-maximal inhibition (IC50).
Compound `COc1cc(CCc2cc(NC(=O)c3cnc(N4CCN5CCCC5C4)cn3)[nH]n2)cc(OC)c1` (centres unmarked) [Example 114, 5-(3,4,6,7,8,8a-hexahydro-1H-pyrrolo[2,1-c]pyrazin-2-yl)-N-[5-[2-(3,5-dimethoxyphenyl)ethyl]-2H-pyrazol-3-yl]pyrazine-2-carboxamide] showed an IC50 of 1.6 nM.
Next, `COc1cc(COc2cc(NC(=O)c3cnc(N4CCN5CCCCC5C4)cn3)[nH]n2)cc(OC)c1` (centres unmarked) [Example 115, 5-(1,3,4,6,7,8,9,9a-Octahydropyrido[2,1-c]pyrazin-2-yl)-N-[5-[(3,5-dimethoxyphenyl)methoxy]-2H-pyrazol-3-yl]pyrazine-2-carboxamide]: 2.3 nM; `COc1cc(COc2cc(NC(=O)c3ccc(N4CCN(C5CC5)CC4)cc3)[nH]n2)cc(OC)c1` [Example 116, 4-(4-cyclopropylpiperazin-1-yl)-N-[5-[(3,5-dimethoxyphenyl)methoxy]-2H-pyrazol-3-yl]benzamide]: 0.93 nM; `COc1cc(CCc2cc(NC(=O)c3ccc(N4CC[N+](C)([O-])CC4)cc3)[nH]n2)cc(OC)c1` [Example 117, N-[5-[2-(3,5-Dimethoxyphenyl)ethyl]-2H-pyrazol-3-yl]-4-(4-methyl-4-oxidopiperazin-4-ium-1-yl)benzamide]: 1.3 nM.
In turn, `COc1cc(COc2cc(NC(=O)c3ccc(N4CCN(C5CCC5)CC4)cc3)[nH]n2)cc(OC)c1` [Example 118, 4-(4-Cyclobutylpiperazin-1-yl)-N-[5-[(3,5-dimethoxyphenyl)methoxy]-2H-pyrazol-3-yl]benzamide] showed an IC50 of 1.1 nM.
To `COc1cc(COc2cc(NC(=O)c3cnc(N4CCN5CCCCC5C4)nc3)[nH]n2)cc(OC)c1` (centres unmarked) [Example 119, 2-(1,3,4,6,7,8,9,9a-Octahydropyrido[2,1-c]pyrazin-2-yl)-N-[5-[(3,5-dimethoxyphenyl)methoxy]-2H-pyrazol-3-yl]pyrimidine-5-carboxamide] belongs 3.3 nM.
To `COc1cc(CCc2cc(NC(=O)c3ccc(N4CCN5CCCC5C4)s3)[nH]n2)cc(OC)c1` (centres unmarked) [Example 120, 5-(3,4,6,7,8,8a-hexahydro-1H-pyrrolo[2,1-c]pyrazin-2-yl)-N-[5-[2-(3,5-dimethoxyphenyl)ethyl]-2H-pyrazol-3-yl]thiophene-2-carboxamide] belongs 0.98 nM; to `COc1cc(COc2cc(NC(=O)c3ccc(N4CCN5CCCC5C4)s3)[nH]n2)cc(OC)c1` (centres unmarked) [Example 121, 5-(3,4,6,7,8,8a-hexahydro-1H-pyrrolo[2,1-c]pyrazin-2-yl)-N-[5-[(3,5-dimethoxyphenyl)methoxy]-2H-pyrazol-3-yl]thiophene-2-carboxamide], 0.79 nM; to `COc1cc(COc2cc(NC(=O)c3cnc(N4CCN5CCCC5C4)cn3)[nH]n2)cc(OC)c1` (centres unmarked) [Example 122, 5-(3,4,6,7,8,8a-Hexahydro-1H-pyrrolo[2,1-c]pyrazin-2-yl)-N-[5-[(3,5-dimethoxyphenyl)methoxy]-2H-pyrazol-3-yl]pyrazine-2-carboxamide], 1.3 nM.
`COc1cc(CCc2cc(NC(=O)c3cnc(N4CCN(C)C(C)C4)cn3)[nH]n2)cc(OC)c1` (centres unmarked) [Example 123, N-[5-[2-(3,5-Dimethoxyphenyl)ethyl]-2H-pyrazol-3-yl]-5-(3,4-dimethylpiperazin-1-yl)pyrazine-2-carboxamide]: the IC50 came to 2.2 nM.
Take `COc1cc(COc2cc(NC(=O)c3cnc(N4CCN(C)C(C)C4)cn3)[nH]n2)cc(OC)c1` (centres unmarked) [Example 124, N-[5-[(3,5-Dimethoxyphenyl)methoxy]-2H-pyrazol-3-yl]-5-(3,4-dimethylpiperazin-1-yl)pyrazine-2-carboxamide]: the half-maximal inhibitory concentration (IC50) came to 1.5 nM.
Take `COc1cc(CCc2cc(NC(=O)c3cnc(N4C[C@@H](C)N(C)[C@@H](C)C4)cn3)[nH]n2)cc(OC)c1` [Example 125, N-[5-[2-(3,5-dimethoxyphenyl)ethyl]-2H-pyrazol-3-yl]-5-[(3R,5S)-3,4,5-trimethylpiperazin-1-yl]pyrazine-2-carboxamide]: the midpoint of inhibition, the IC50, lay at 1.7 nM.
In turn, `COc1cc(CCc2cc(NC(=O)c3cnc(N4CCN(C5CC5)CC4)nc3)[nH]n2)cc(OC)c1` [Example 126, 2-(4-cyclopropylpiperazin-1-yl)-N-[5-[2-(3,5-dimethoxyphenyl)ethyl]-2H-pyrazol-3-yl]pyrimidine-5-carboxamide] yielded an IC50 of 3.6 nM.
As to `COc1cc(CCc2cc(NC(=O)c3cnc(N4CCN5CCCCC5C4)nc3)[nH]n2)cc(OC)c1` (centres unmarked) [Example 127, 2-(1,3,4,6,7,8,9,9a-octahydropyrido[2,1-c]pyrazin-2-yl)-N-[5-[2-(3,5-dimethoxyphenyl)ethyl]-2H-pyrazol-3-yl]pyrimidine-5-carboxamide], the IC50 amounted to 2.9 nM.
In turn, `COc1cc(CCc2cc(NC(=O)c3cnc(N4CCN5CCCC5C4)nc3)[nH]n2)cc(OC)c1` (centres unmarked) [Example 128, 2-(3,4,6,7,8,8a-hexahydro-1H-pyrrolo[2,1-c]pyrazin-2-yl)-N-[5-[2-(3,5-dimethoxyphenyl)ethyl]-2H-pyrazol-3-yl]pyrimidine-5-carboxamide] yielded a half-inhibitory concentration (IC50) of 3 nM.
